In test [1] the test system is ATR-driven phosphorylation of Chk1 kinase at Serine 345 in HT-29 colorectal adenocarcinoma cells. Put plainly: pCHK1 cellular assay (CHK1 p-Ser345 AlphaScreen SureFire). The test is classed as cell-based. Particulars: 4-nitroquinoline N-oxide 12 uM, read-out: Cell IC50 (pCHK1 IC50 values). Put shortly:
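HT-29 cells seeded overnight, treated with 1:3 serially diluted compound for 90 minutes at 37° C., then 12 uM (final) 4-nitroquinoline N-oxide for 120 minutes. Lysates read for Chk1 p-Ser345 by AlphaScreen SureFire; IC50 from four-parameter logistic fit, normalized to DMSO (max) and 5 uM ATR inhibitor (min).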
In general terms: In Alpha technology, singlet oxygen from a donor bead excites a nearby acceptor bead.

Another test deals with ATR/ATRIP complex (Homo sapiens (Human), UniProt Q13535). Put plainly: ATR/ATRIP enzymatic assay (Caliper-based). The test is classed as biochemical. Particulars: FAM-labeled RAD17 peptide, ATP. Put shortly: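 FLAG-TEV-ATR/His6-ATRIP co-expressed in HEK293 and anti-FLAG purified. Compound preincubated 30 min at 28 °C with enzyme (2x solution 4 nM), then FAM-RAD17 peptide (2x solution 10 uM, 2 μM ATP) added for 6 h at 28 °C; HEPES pH 8, 10 mM MnCl2. Caliper conversion read-out, IC50 from four-parameter fit.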

[2] abbreviates: Homo sapiens, HT-29, HT-29 cells.
[3] abbreviates: read-out: ATR/ATRIP Enzyme IC50.
The mark [4] stands for this setting: estimated range, read-out: ATR/ATRIP Enzyme IC50 (estimated class).

pIC50: −log10 of the molar value. Where two headings read alike, the source gives them in different places.

Sequence of ATR/ATRIP complex (Q13535 whole entry): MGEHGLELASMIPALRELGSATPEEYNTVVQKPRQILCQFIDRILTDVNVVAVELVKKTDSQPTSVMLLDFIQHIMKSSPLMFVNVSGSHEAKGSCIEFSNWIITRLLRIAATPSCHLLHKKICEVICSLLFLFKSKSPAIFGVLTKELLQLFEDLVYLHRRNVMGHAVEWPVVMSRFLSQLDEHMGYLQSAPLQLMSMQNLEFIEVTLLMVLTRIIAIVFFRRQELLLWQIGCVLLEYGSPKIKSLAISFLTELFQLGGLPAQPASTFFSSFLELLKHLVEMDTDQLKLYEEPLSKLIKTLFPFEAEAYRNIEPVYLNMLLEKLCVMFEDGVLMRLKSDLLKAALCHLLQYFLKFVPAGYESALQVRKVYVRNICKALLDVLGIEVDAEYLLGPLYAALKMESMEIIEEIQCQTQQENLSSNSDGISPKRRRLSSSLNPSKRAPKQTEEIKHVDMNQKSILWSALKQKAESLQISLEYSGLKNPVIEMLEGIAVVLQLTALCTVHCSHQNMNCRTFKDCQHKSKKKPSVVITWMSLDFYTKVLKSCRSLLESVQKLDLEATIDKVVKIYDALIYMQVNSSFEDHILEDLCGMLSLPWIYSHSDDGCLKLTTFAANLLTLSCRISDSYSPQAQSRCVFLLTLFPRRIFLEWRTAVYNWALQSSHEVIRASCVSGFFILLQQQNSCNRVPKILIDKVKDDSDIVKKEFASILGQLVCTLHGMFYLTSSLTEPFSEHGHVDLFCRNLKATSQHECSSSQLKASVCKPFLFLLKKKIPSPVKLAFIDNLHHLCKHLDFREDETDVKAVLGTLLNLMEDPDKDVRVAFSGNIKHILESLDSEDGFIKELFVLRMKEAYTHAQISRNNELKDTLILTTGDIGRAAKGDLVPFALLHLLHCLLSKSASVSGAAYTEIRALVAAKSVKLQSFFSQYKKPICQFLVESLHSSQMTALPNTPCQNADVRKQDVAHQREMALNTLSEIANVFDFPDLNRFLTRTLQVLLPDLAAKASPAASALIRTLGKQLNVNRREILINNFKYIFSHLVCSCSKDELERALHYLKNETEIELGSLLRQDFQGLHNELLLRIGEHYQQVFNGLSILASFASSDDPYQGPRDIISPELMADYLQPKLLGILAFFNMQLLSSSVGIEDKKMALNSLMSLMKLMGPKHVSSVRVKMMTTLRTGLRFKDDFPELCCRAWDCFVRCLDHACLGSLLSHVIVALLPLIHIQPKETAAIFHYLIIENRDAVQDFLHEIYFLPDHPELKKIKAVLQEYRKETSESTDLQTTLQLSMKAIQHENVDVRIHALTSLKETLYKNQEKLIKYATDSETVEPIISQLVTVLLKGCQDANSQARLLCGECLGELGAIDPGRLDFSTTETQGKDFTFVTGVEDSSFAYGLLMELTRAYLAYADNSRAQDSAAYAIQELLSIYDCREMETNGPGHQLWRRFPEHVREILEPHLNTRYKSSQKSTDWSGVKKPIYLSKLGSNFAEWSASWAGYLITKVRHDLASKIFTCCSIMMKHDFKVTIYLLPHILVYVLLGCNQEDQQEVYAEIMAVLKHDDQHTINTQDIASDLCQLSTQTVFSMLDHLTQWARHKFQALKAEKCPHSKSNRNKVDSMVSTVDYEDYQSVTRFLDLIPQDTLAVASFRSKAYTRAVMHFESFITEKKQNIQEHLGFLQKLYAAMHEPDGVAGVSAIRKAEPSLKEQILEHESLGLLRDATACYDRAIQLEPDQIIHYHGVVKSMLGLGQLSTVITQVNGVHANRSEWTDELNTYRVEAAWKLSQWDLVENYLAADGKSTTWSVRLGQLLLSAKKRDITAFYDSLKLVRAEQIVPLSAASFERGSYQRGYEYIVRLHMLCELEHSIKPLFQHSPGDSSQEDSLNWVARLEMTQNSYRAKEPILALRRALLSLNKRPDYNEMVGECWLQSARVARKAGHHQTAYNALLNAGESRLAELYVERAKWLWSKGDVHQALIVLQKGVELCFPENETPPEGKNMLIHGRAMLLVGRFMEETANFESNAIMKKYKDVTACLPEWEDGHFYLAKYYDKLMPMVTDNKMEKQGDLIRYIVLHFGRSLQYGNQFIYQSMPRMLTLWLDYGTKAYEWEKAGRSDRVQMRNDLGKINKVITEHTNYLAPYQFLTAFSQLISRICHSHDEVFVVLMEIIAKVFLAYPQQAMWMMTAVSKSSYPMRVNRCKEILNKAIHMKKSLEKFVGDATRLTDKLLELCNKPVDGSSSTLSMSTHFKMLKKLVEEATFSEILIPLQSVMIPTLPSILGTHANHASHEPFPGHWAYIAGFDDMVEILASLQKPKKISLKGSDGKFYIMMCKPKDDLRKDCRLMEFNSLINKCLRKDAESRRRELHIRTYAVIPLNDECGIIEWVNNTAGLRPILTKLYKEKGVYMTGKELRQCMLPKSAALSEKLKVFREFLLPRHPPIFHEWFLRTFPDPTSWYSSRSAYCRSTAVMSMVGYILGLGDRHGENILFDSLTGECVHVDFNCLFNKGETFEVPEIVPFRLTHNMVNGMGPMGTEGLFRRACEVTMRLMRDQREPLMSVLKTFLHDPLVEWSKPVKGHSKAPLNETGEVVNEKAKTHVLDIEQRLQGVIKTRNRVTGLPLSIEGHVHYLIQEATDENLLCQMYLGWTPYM
Sequence of ATR/ATRIP complex (Q8WXE1 whole entry partner): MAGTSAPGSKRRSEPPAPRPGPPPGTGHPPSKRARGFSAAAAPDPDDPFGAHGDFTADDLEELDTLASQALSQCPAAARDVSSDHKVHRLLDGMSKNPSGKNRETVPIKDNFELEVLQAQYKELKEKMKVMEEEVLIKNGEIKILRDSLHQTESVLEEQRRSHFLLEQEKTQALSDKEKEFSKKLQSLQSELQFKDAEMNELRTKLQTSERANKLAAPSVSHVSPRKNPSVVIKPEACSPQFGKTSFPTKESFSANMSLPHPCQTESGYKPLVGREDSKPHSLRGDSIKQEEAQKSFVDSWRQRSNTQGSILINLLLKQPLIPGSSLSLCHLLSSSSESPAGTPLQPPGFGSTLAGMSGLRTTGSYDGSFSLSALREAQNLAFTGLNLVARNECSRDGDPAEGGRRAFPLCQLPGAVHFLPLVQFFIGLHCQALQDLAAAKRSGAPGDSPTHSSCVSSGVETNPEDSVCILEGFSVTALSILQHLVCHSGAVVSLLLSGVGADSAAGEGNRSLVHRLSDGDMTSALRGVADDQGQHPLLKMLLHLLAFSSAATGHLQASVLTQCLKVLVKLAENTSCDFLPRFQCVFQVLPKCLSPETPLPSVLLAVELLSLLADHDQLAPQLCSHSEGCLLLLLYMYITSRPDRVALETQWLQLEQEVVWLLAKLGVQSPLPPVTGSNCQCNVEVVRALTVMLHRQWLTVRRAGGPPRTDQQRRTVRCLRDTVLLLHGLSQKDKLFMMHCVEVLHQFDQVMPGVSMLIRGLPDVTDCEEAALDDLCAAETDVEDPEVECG

As to `CCOc1cc(N2Cc3c(ncnc3C3CCN(S(C)(=O)=O)CC3)C[C@H]2C)c2cc[nH]c2n1` [Example 54, (R)-6-(6-ethoxy-1H-pyrrolo[2,3-b]pyridin-4-yl)-7-methyl-4-(1-(methylsulfonyl)piperidin-4-yl)-5,6,7,8-tetrahydropyrido[4,3-d]pyrimidine], the pIC50 in test [1] (setting [2]) was 8.00; on ATR/ATRIP complex (setting [3]), 6.91.

Take `CNC(=O)C1CCN(c2ncnc3c2CN(c2cc(Cl)nc4[nH]ccc24)[C@H](C)C3)CC1` [Example 76, (R)-1-(6-(6-chloro-1H-pyrrolo[2,3-b]pyridin-4-yl)-7-methyl-5,6,7,8-tetrahydropyrido[4,3-d]-pyrimidin-4-yl)-N-methylpiperidine-4-carboxamide]: the pIC50 is 7.21 in test [1] (setting [2]) and 6.15 on ATR/ATRIP complex (setting [3]).

For the compound `C[C@@H]1Cc2ncnc(N3CCCC(S(C)(=O)=O)C3)c2CN1c1cc(Cl)nc2[nH]ccc12` (stereo partly drawn) [Example 65, (7R)-6-(6-chloro-1H-pyrrolo[2,3-b]pyridin-4-yl)-7-methyl-4-(3-(methylsulfonyl)-piperidin-1-yl)-5,6,7,8-tetrahydropyrido[4,3-d]-pyrimidine], the results for the pIC50 (in test [1] (setting [2]); on ATR/ATRIP complex (setting [3])) were 8.10 and 6.80, respectively.

Consider `C[C@@H]1Cc2ncnc(C3CCN(S(C)(=O)=O)CC3)c2CN1c1cc(C2CC2)nc2[nH]ccc12` [Example 95, (R)-6-(6-cyclopropyl-1H-pyrrolo[2,3-b]pyridin-4-yl)-7-methyl-4-(1-(methylsulfonyl)-piperidin-4-yl)-5,6,7,8-tetrahydropyrido[4,3-d]-pyrimidine], for which the figures for the pIC50 (in test [1] (setting [2]); on ATR/ATRIP complex (setting [3])) were 7.27 and 6.57, respectively.

For the compound `CC(C)Oc1cc(N2Cc3c(ncnc3C3CCN(S(C)(=O)=O)CC3)C[C@H]2C)c2cc[nH]c2n1` [Example 93, (R)-6-(6-isopropoxy-1H-pyrrolo[2,3-b]pyridin-4-yl)-7-methyl-4-(1-(methylsulfonyl)piperidin-4-yl)-5,6,7,8-tetrahydro-pyrido[4,3-d]pyrimidine], the pIC50 is 7.82 in test [1] (setting [2]) and 7.06 on ATR/ATRIP complex (setting [3]).

As to `C[C@@H]1Cc2ncnc(N3C[C@H]4CC[C@@H](C3)[C@H]4NS(=O)(=O)C3CC3)c2CN1c1cc(Cl)nc2[nH]ccc12` [Example 78, N-((1R,5S,8R)-3-((R)-6-(6-chloro-1H-pyrrolo[2,3-b]pyridin-4-yl)-7-methyl-5,6,7,8-tetrahydropyrido-[4,3-d]pyrimidin-4-yl)-3-azabicyclo[3.2.1]-octan-8-yl)cyclopropane-sulfonamide], the pIC50 in test [1] (setting [2]) was 7.30; at ATR/ATRIP complex (setting [3]), 6.74.

As for `C[C@@H]1Cc2ncnc(N3CCC(C(C)(C)O)CC3)c2CN1c1cc(Cl)nc2[nH]ccc12` [Example 30, 2-{1-[(7R)-6-{6-chloro-1H-pyrrolo[2,3-b]pyridin-4-yl}-7-methyl-5H,6H,7H,8H-pyrido[4,3-d]pyrimidin-4-yl]-piperidin-4-yl}propan-2-ol], the pIC50 was 7.92 in test [1] (setting [2]) and 6.48 on ATR/ATRIP complex (setting [3]).

`C[C@@H]1Cc2ncnc(N3CCC34CN(S(C)(=O)=O)C4)c2CN1c1cc(Cl)nc2[nH]ccc12` [Example 37, (R)-6-(6-chloro-1H-pyrrolo[2,3-b]pyridin-4-yl)-7-methyl-4-(6-(methylsulfonyl)-1,6-diazaspiro[3.3]heptan-1-yl)-5,6,7,8-tetrahydropyrido[4,3-d] pyrimidine]: the results for the pIC50 (in test [1] (setting [2]); on ATR/ATRIP complex (setting [4])) were 7.25 and 5.00 to 6.00, respectively.

On to `CCC1(O)CCN(c2ncnc3c2CN(c2cc(Cl)nc4[nH]ccc24)[C@H](C)C3)CC1` [Example 46, (R)-1-(6-(6-Chloro-1H-pyrrolo[2,3-b]pyridin-4-yl)-7-methyl-5,6,7,8-tetrahydropyrido[4,3-d]pyrimidin-4-yl)-4-ethylpiperidin-4-ol], for which the pIC50 was 7.68 in test [1] (setting [2]) and 6.55 on ATR/ATRIP complex (setting [3]).

As for `C[C@@H]1Cc2ncnc(C3CCN(S(C)(=O)=O)CC3)c2CN1c1ccnc2[nH]ncc12` [Example 42, (R)-7-methyl-4-(1-(methylsulfonyl)piperidin-4-yl)-6-(1H-pyrazolo[3,4-b]pyridin-4-yl)-5,6,7,8-tetrahydropyrido[4,3-d] pyrimidine], the pIC50 was 5.52 in test [1] (setting [2]) and 5.00 to 6.00 at ATR/ATRIP complex (setting [4]).

Turning to `C[C@@H]1Cc2ncnc(N3CCC(NS(C)(=O)=O)CC3)c2CN1c1cc(Cl)nc2[nH]ccc12` [Example 29, N-{1-[(7R)-6-{6-chloro-1H-pyrrolo[2,3-b]pyridin-4-yl}-7-methyl-5H,6H,7H,8H-pyrido [4,3-d]pyrimidin-4-yl]piperidin-4-yl}methanesulfonamide], the pIC50 in test [1] (setting [2]) is 7.89; on ATR/ATRIP complex (setting [3]), 6.92.

As to `COC(=O)N1CCC(c2ncnc3c2CN(c2cc(Cl)nc4[nH]ccc24)[C@H](C)C3)CC1` [Example 25, methyl 4-[(7R)-6-{6-chloro-1H-pyrrolo[2,3-b]pyridin-4-yl}-7-methyl-5H,6H,7H,8H-pyrido [4,3-d]pyrimidin-4-yl]piperidine-1-carboxylate], the pIC50 was 7.55 in test [1] (setting [2]) and 6.05 on ATR/ATRIP complex (setting [3]).

As to `C[C@@H]1Cc2ncnc(C3CCN(S(C)(=O)=O)CC3)c2CN1c1cc(Cl)nc2[nH]ccc12` [Example 7, (R)-6-(6-Chloro-1H-pyrrolo[2,3-b]pyridin-4-yl)-7-methyl-4-(1-(methylsulfonyl)-piperidin-4-yl)-5,6,7,8-tetrahydropyrido[4,3-d]pyrimidine bis(trifluoroacetate)], the pIC50 in test [1] (setting [2]) is 7.49; on ATR/ATRIP complex (setting [3]), 6.79.

Regarding `C[C@@H]1Cc2ncnc([C@H]3CCN(S(C)(=O)=O)C(C)(C)C3)c2CN1c1ccnc2[nH]ccc12` (single isomer, unassigned) [Example 48b], the pIC50 in test [1] (HT-29 cells) was 7.10; at ATR/ATRIP complex (setting [3]) it was 6.36.

Regarding “N-((1R,5S,8R)-3-((R)-7- methyl-6-(1H-pyrrolo- [2,3-b]pyridin-4-yl)- 5,6,7,8-tetrahydropyrido- [4,3-d]pyrimidin-4-yl)-3- azabicyclo[3.2.1]octan-8- yl)methanesulfonamide [Example 74]”, the pIC50 in test [1] (HT-29 cells) is 7.51; on ATR/ATRIP complex (setting [3]), 6.55.

With `CC1Cc2ncnc(-c3cccc(S(C)(=O)=O)c3)c2CN1c1ccnc2[nH]ccc12` (stereo not shown) [Example 15, 4-(3-methanesulfonyl-phenyl)-7-methyl-6-{1H-pyrrolo[2,3-b]pyridin-4-yl}-5H,6H,7H,8H-pyrido[4,3-d]pyrimidine], the pIC50 was 6.82 in test [1] (setting [2]) and 5.00 to 6.00 at ATR/ATRIP complex (setting [4]).

`C[C@@H]1Cc2ncnc(C3CCN(S(C)(=O)=O)CC3)c2CN1c1ncnc2[nH]ccc12` [Example 23, 1-methanesulfonyl-4-[(7R)-7-methyl-6-{7H-pyrrolo[2,3-d]pyrimidin-4-yl}-5H,6H,7H,8H-pyrido[4,3-d]pyrimidin-4-yl]piperidine]: the results for the pIC50 (in test [1] (setting [2]); on ATR/ATRIP complex (setting [4])) were 6.21 and 5.00 to 6.00, respectively.

Regarding `C[C@@H]1Cc2ncnc([C@@H]3CCN(S(C)(=O)=O)C3)c2CN1c1ccnc2[nH]ccc12` [Example 57a, (R)-7-methyl-4-((R)-1-(methylsulfonyl)pyrrolidin-3-yl)-6-(1H-pyrrolo[2,3-b]pyridin-4-yl)-5,6,7,8-tetrahydropyrido[4,3-d]pyrimidine], the pIC50 in test [1] (setting [2]) is 6.74; on ATR/ATRIP complex (setting [3]), 6.08.

`CS(=O)(=O)N1CCC(c2ncnc3c2CN(c2ccnc4[nH]ccc24)CC3)CC1` [Example 2, 4-(1-(Methylsulfonyl)piperidin-4-yl)-6-(1H-pyrrolo[2,3-b]pyridin-4-yl)-5,6,7,8-tetrahydropyrido[4,3-d]pyrimidine bis(trifluoroacetate)]: the values for the pIC50 (in test [1] (setting [2]); at ATR/ATRIP complex (setting [4])) were 5.71 and 5.00 to 6.00, respectively.

With `COC(=O)[C@@H]1CCCN(c2ncnc3c2CN(c2cc(Cl)nc4[nH]ccc24)[C@H](C)C3)C1` [Example 62, Methyl (R)-1-((R)-6-(6-chloro-1H-pyrrolo[2,3-b]pyridin-4-yl)-7-methyl-5,6,7,8-tetrahydropyrido-[4,3-d]pyrimidin-4-yl)-piperidine-3-carboxylate], the pIC50 in test [1] (setting [2]) was 6.86; on ATR/ATRIP complex (setting [3]), 6.60.

Take `COC(=O)N1CCCC(c2ncnc3c2CN(c2cc(Cl)nc4[nH]ccc24)[C@H](C)C3)C1` (stereo partly drawn) [Example 10, Methyl 3-((R)-6-(6-chloro-1H-pyrrolo[2,3-b]pyridin-4-yl)-7-methyl-5,6,7,8-tetrahydro-pyrido[4,3-d]pyrimidin-4-yl)piperidine-1-carboxylate bis(trifluoroacetate)]: the values for the pIC50 (in test [1] (setting [2]); on ATR/ATRIP complex (setting [3])) were 7.41 and 6.39, respectively.

On to `Cc1cc2c(N3Cc4c(ncnc4C4CCN(S(C)(=O)=O)CC4)C[C@H]3C)ccnc2[nH]1` [Example 94, (R)-7-methyl-6-(2-methyl-1H-pyrrolo[2,3-b]pyridin-4-yl)-4-(1-(methylsulfonyl)piperidin-4-yl)-5,6,7,8-tetrahydro-pyrido[4,3-d]pyrimidine], for which the pIC50 was 7.01 in test [1] (setting [2]) and 7.29 on ATR/ATRIP complex (setting [3]).

Take `CCOc1cc(N2Cc3c(ncnc3C3CCN(S(C)(=O)=O)CC3)C[C@@H]2CF)c2cc[nH]c2n1` [Example 55a, (R)-6-(6-ethoxy-1H-pyrrolo[2,3-b]pyridin-4-yl)-7-(fluoromethyl)-4-(1-(methylsulfonyl)piperidin-4-yl)-5,6,7,8-tetrahydropyrido[4,3-d]pyrimidine]: the values for the pIC50 (in test [1] (setting [2]); on ATR/ATRIP complex (setting [3])) were 5.63 and 4.60, respectively.

(Values after patent US10421765B2, “Tetrahydropyrido[4,3-d]pyrimidine inhibitors of ATR kinase” (Board of Regents, The University of Texas System, priority 2017, dated 2019).)
